Assay results: ChEMBL document CHEMBL1201862, “PubChem BioAssay data set” (2004)
Values joined by “and” are separate entries in the source; they are usually repeats but may differ in a detail not shown here. Equal values may be shown once.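 Dose response: 5 concentrations. Exposure: 48 h. Format: 96-well plates. Endpoint: linear interpolation; highest concentration if not reached. GI50 marks 50% less growth.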 Active and inactive are the calls of the source. Cut-off read from the data, not from the text of the source: active = GI50 up to about 1.1 µM and inactive = higher.

Legend:
Test in all cases: inhibition of tumour cell growth, NCI panel, 48 h
HOP-92 = system: HOP-92
KM12 = system: KM12
MCF7 = system: MCF7
RPMI-8226 = system: RPMI-8226
DU-145 = system: DU-145
LOX IMVI = system: LOX IMVI
SK-MEL-5 = system: SK-MEL-5
SK-OV-3 = system: SK-OV-3
IGROV-1 = system: IGROV-1
SF-295 = system: SF-295
T47D = system: T47D
OVCAR-4 = system: OVCAR-4
Hs-578T = system: Hs-578T
CCRF-CEM = system: CCRF-CEM
A498 = system: A498
SF-539 = system: SF-539
SN12C = system: SN12C
COLO 205 = system: COLO 205
BT-549 = system: BT-549

| Structure (SMILES) | GI50 (HOP-92) | GI50 (KM12) | GI50 (MCF7) | GI50 (RPMI-8226) | GI50 (DU-145) | GI50 (LOX IMVI) | GI50 (SK-MEL-5) | GI50 (SK-OV-3) | GI50 (IGROV-1) | GI50 (SF-295) | GI50 (T47D) | GI50 (OVCAR-4) | GI50 (Hs-578T) | GI50 (CCRF-CEM) | GI50 (A498) | GI50 (SF-539) | GI50 (SN12C) | GI50 (COLO 205) | GI50 (BT-549) |
| --- | --- | --- | --- | --- | --- | --- | --- | --- | --- | --- | --- | --- | --- | --- | --- | --- | --- | --- | --- |
| COC(=O)/C(C)=N/N=C(\S)SC | > 100 µM (inactive) | 52.5 µM (inactive) | 35.4 µM (inactive) | 66.4 µM (inactive) | 24.3 µM (inactive) | 37.2 µM (inactive) | 29.2 µM (inactive) | > 100 µM (inactive) | 47.5 µM (inactive) | 40.2 µM (inactive) | 18.1 µM (inactive) | 46.3 µM (inactive) | 28.8 µM (inactive) | 0.0428 µM (active) | > 100 µM (inactive) | 82.6 µM (inactive) |  |  |  |
| CC1(C)CC[C@]2(C(=O)O)CC[C@]3(C)C(=CC[C@@H]4[C@@]5(C)C[C@H](O)[C@H](O)[C@@](C)(CO)C5=CC[C@]43C)[C@@H]2C1 | > 100 µM (inactive) | 21.4 µM (inactive) | 46.7 µM (inactive) | 50.5 µM (inactive) | 39.6 µM (inactive) | 71.3 µM (inactive) | > 100 µM (inactive) | > 100 µM (inactive) | 31.1 µM (inactive) | 25.8 µM (inactive) | 35.8 µM (inactive) | 31.4 µM (inactive) | 37.7 µM (inactive) | > 100 µM (inactive) | > 100 µM (inactive) | > 100 µM (inactive) | 51.9 µM (inactive) | 22.5 µM (inactive) |  |
| COc1cc(/C=C2/Oc3c(OC)cccc3C2=O)ccc1O | > 100 µM (inactive) | 88.5 µM (inactive) | > 100 µM (inactive) | 53.2 µM (inactive) | 49.1 µM (inactive) | 84.5 µM (inactive) | 34.8 µM (inactive) | 92 µM (inactive) | 64.6 µM (inactive) | 54 µM (inactive) |  | > 100 µM (inactive) | > 100 µM (inactive) | 60.1 µM (inactive) | 94 µM (inactive) |  | > 100 µM (inactive) | 45.8 µM (inactive) | > 100 µM (inactive) |
| COc1ccccc1NS(=O)(=O)c1ccc2ncn(NS(=O)(=O)c3ccc(Cl)cc3)c(=O)c2c1 | > 100 µM (inactive) | 61.4 µM (inactive) | > 100 µM (inactive) | 26.9 µM (inactive) | > 100 µM (inactive) | > 100 µM (inactive) |  | > 100 µM (inactive) | > 100 µM (inactive) | 17.7 µM (inactive) |  | > 100 µM (inactive) | 77.3 µM (inactive) | 54.7 µM (inactive) |  | > 100 µM (inactive) | > 100 µM (inactive) | > 100 µM (inactive) | > 100 µM (inactive) |
| N=c1c2c(-c3ccccc3)c[nH]c2ncn1N | > 100 µM (inactive) | > 100 µM (inactive) | > 100 µM (inactive) | > 100 µM (inactive) |  | > 100 µM (inactive) | > 100 µM (inactive) | > 100 µM (inactive) | > 100 µM (inactive) | > 100 µM (inactive) | > 100 µM (inactive) | > 100 µM (inactive) |  | > 100 µM (inactive) | > 100 µM (inactive) | > 100 µM (inactive) | > 100 µM (inactive) | > 100 µM (inactive) | > 100 µM (inactive) |
| CC(C)(C)N1CC2(CCCCC2)C1=O | > 100 µM (inactive) | > 100 µM (inactive) |  | > 100 µM (inactive) |  | > 100 µM (inactive) | > 100 µM (inactive) | > 100 µM (inactive) | > 100 µM (inactive) | > 100 µM (inactive) |  | > 100 µM (inactive) |  | > 100 µM (inactive) | > 100 µM (inactive) | > 100 µM (inactive) | > 100 µM (inactive) | > 100 µM (inactive) |  |
| CCc1nc(Cl)c(Cl)c(Cl)n1 |  | > 100 µM (inactive) | > 100 µM (inactive) | > 100 µM (inactive) |  | > 100 µM (inactive) | > 100 µM (inactive) | > 100 µM (inactive) | > 100 µM (inactive) | > 100 µM (inactive) |  | > 100 µM (inactive) | > 100 µM (inactive) | > 100 µM (inactive) |  | > 100 µM (inactive) | > 100 µM (inactive) |  | > 100 µM (inactive) |
| CCCN(CCC)C(=O)c1c(Cl)c2cccnc2n2c(C)cnc12 | 73.3 µM (inactive) | 51.1 µM (inactive) | 47.9 µM (inactive) | 39.5 µM (inactive) | > 100 µM (inactive) | > 100 µM (inactive) | 37.8 µM (inactive) | 58.9 µM (inactive) | 64.4 µM (inactive) | > 100 µM (inactive) | 11.7 µM (inactive) | > 100 µM (inactive) | > 100 µM (inactive) | 51.8 µM (inactive) | 69.5 µM (inactive) | > 100 µM (inactive) | > 100 µM (inactive) | 49.5 µM (inactive) |  |
| Cc1ccc(S(=O)(=O)Oc2nc3ccccc3nc2OS(=O)(=O)c2ccc(C)cc2)cc1 |  | > 100 µM (inactive) | > 100 µM (inactive) | 40.9 µM (inactive) | > 100 µM (inactive) | > 100 µM (inactive) | 28.5 µM (inactive) | > 100 µM (inactive) | > 100 µM (inactive) | > 100 µM (inactive) |  |  | > 100 µM (inactive) | 31.6 µM (inactive) | > 100 µM (inactive) | > 100 µM (inactive) | > 100 µM (inactive) | > 100 µM (inactive) | > 100 µM (inactive) |
| O=[N+]([O-])c1ccc2c(c1)Sc1ccccc1N2 | 6.12 µM (inactive) | > 100 µM (inactive) | 44.6 µM (inactive) | 5.79 µM (inactive) | 74.6 µM (inactive) | 41.3 µM (inactive) | 9.33 µM (inactive) |  | 17.7 µM (inactive) | > 100 µM (inactive) |  | > 100 µM (inactive) | 17.2 µM (inactive) | 20.7 µM (inactive) | 14.1 µM (inactive) | > 100 µM (inactive) | > 100 µM (inactive) | 32.9 µM (inactive) | > 100 µM (inactive) |
| CC(=O)SCCC(NC(=S)Nc1ccccc1)P(=O)(Oc1ccccc1)Oc1ccccc1 (stereo not given) | > 100 µM (inactive) | > 100 µM (inactive) | > 100 µM (inactive) |  | > 100 µM (inactive) | > 100 µM (inactive) |  | > 100 µM (inactive) | > 100 µM (inactive) | > 100 µM (inactive) | > 100 µM (inactive) | > 100 µM (inactive) | > 100 µM (inactive) | > 100 µM (inactive) |  | > 100 µM (inactive) | > 100 µM (inactive) | > 100 µM (inactive) |  |
| NNc1ncc2c(n1)-c1ccccc1OC2 | 24.7 µM (inactive) | 54.1 µM (inactive) | 50.1 µM (inactive) | 38.2 µM (inactive) | 61 µM (inactive) | 58.9 µM (inactive) | 76.9 µM (inactive) | 57.1 µM (inactive) | 31 µM (inactive) | 36.1 µM (inactive) |  | 67.1 µM (inactive) | > 100 µM (inactive) | 17.3 µM (inactive) |  | 46.3 µM (inactive) | 71.6 µM (inactive) | 59.3 µM (inactive) |  |
| CNC(=O)N1N[C@H](c2ccccc2)[C@@H]1c1ccccc1.OB(O)O | 26.3 µM (inactive) | 17 µM (inactive) | 24 µM (inactive) |  |  | 18 µM (inactive) | 16.3 µM (inactive) | 34 µM (inactive) | 18.6 µM (inactive) | 17.3 µM (inactive) |  | 42 µM (inactive) | 22.5 µM (inactive) | 32.4 µM (inactive) | 20.6 µM (inactive) | 17.9 µM (inactive) | 25.5 µM (inactive) | 20 µM (inactive) | 19.3 µM (inactive) |
| COc1c2c(cc3nc4ccccc4nc13)CC[C@H](NC(C)=O)c1cc(=O)c(SC)ccc1-2 | 5.75 µM (inactive) | 0.273 µM (active) | 0.327 µM (active) | 0.538 µM (active) | 2.47 µM (inactive) | 0.755 µM (active) | 0.412 µM (active) | 5.28 µM (inactive) | 0.236 µM (active) | 1.17 µM (inactive) |  | 4.27 µM (inactive) | 0.126 µM (active) | 0.532 µM (active) | 7.62 µM (inactive) | 0.304 µM (active) | 2.79 µM (inactive) | 0.283 µM (active) |  |
| O=C1C(=O)N(c2cccc(C(F)(F)F)c2)C(=S)N1c1ccccc1 | 19.1 µM (inactive) | 31.4 µM (inactive) |  | 36.2 µM (inactive) | 22.2 µM (inactive) | 1.91 µM (inactive) | 17.9 µM (inactive) | 19.3 µM (inactive) | 22.4 µM (inactive) | 31.5 µM (inactive) | 25.4 µM (inactive) | 41.1 µM (inactive) | 27.9 µM (inactive) | 35.9 µM (inactive) | 21.9 µM (inactive) | 26.1 µM (inactive) | 34.4 µM (inactive) | 16.4 µM (inactive) |  |
| COC(=O)C1=COC(C)C2CN3CCc4c([nH]c5cc(OC)c(OC)cc45)C3CC12 (stereo not given) | 22 µM (inactive) and 40.8 µM (inactive) |  |  | 27.9 µM (inactive) | > 100 µM (inactive) and 98.9 µM (inactive) | > 100 µM (inactive) and 55.5 µM (inactive) | 50.4 µM (inactive) and 36.8 µM (inactive) | > 100 µM (inactive) |  | 59.4 µM (inactive) and 56.1 µM (inactive) | 40.6 µM (inactive) and 34.6 µM (inactive) |  | > 100 µM (inactive) and 54 µM (inactive) |  | > 100 µM (inactive) and 87.7 µM (inactive) | > 100 µM (inactive) and 66.7 µM (inactive) | > 100 µM (inactive) and 68.1 µM (inactive) | 34.9 µM (inactive) and 29.9 µM (inactive) |  |
| Nc1ncnc2c1ncn2C1OC(CO)C2OC21 (stereo not given) | > 100 µM (inactive) | > 100 µM (inactive) | > 100 µM (inactive) | > 100 µM (inactive) | > 100 µM (inactive) | > 100 µM (inactive) | > 100 µM (inactive) | > 100 µM (inactive) | > 100 µM (inactive) | > 100 µM (inactive) | > 100 µM (inactive) | > 100 µM (inactive) | > 100 µM (inactive) | > 100 µM (inactive) | > 100 µM (inactive) | > 100 µM (inactive) | > 100 µM (inactive) | > 100 µM (inactive) |  |
